Experimental data from ChEMBL document CHEMBL1144246, “Design, synthesis and structure-activity relationship of simple bis-amides as potent inhibitors of GlyT1” (Bioorg Med Chem Lett, 2008).
In brackets after ≈: the same amount, converted by molar mass.

Columns and labels:
[1] = Aqueous solubility in phosphate buffer at pH 6.5 by lyophilisation solubility assay; type: physicochemical
[2] = Metabolic stability in mouse liver microsomes assessed as intrinsic clearance per mg protein; type: ADME, Microsome
[3] = Metabolic stability in human liver microsomes assessed as intrinsic clearance per mg protein; type: ADME, Microsome

solubility [1] [µg/mL] | microsomal CLint [2] [µL/min/mg] | microsomal CLint [3] [µL/min/mg] | Structure (SMILES)
7 (≈ 17.3 µM) | 8.6 |  | N#Cc1ccc(C(=O)NCC(=O)NC(c2ccccc2)c2ccc(Cl)cc2)cc1 (centres undefined)
< 1 |  | 9.7 | O=C(CNC(=O)c1ccc(F)cc1)NC(c1cccc(F)c1)c1cccc(F)c1
< 1 | 19.3 |  | O=C(CNC(=O)c1ccc(F)cc1)NC(c1ccccc1)c1cccc(C(F)(F)F)c1 (centres undefined)
< 1 | 926 | 887 | O=C(CCc1ccccc1)NCC(=O)NC(c1ccccc1)c1ccc(Cl)cc1 (centres undefined)
